The source of these data is ChEMBL document CHEMBL4477154, “Gersemiols A-C and Eunicellol A, Diterpenoids from the Arctic Soft Coral Gersemia fruticosa” (2016).

In brackets after ≈: the same amount, converted by molar mass. Activity calls are given as the source filed them. The rule behind the calls is not given here.

One experiment relates to A549. The experiment is described as follows: Cytotoxicity against human A549 cells assessed as cell growth inhibition at 15 ug/ml after 72 hrs by MTT assay. The format is functional, cell-based. A general note: Tetrazolium assays rely on reduction of a dye to a coloured formazan, in cell work by metabolically active cells.
For another experiment, the system named is MCF7. The experiment is described as follows: Cytotoxicity against human MCF7 cells assessed as cell growth inhibition at 15 ug/ml after 72 hrs by MTT assay. The format is functional, cell-based.
The subject of another experiment is HT-29. The experiment is described as follows: Cytotoxicity against human HT-29 cells assessed as cell growth inhibition at 15 ug/ml after 72 hrs by MTT assay. The format is functional, cell-based.
The test system of another experiment is MIA PaCa-2. The experiment is described as follows: Cytotoxicity against human MIAPaCa2 cells assessed as cell growth inhibition at 15 ug/ml after 72 hrs by MTT assay. The experiment is classed as functional, cell-based.
Another experiment deals with HepG2. The experiment is described as follows: Cytotoxicity against human HepG2 cells assessed as cell growth inhibition at 15 ug/ml after 72 hrs by MTT assay. The experiment is classed as functional, cell-based.
The subject of a further experiment is Staphylococcus aureus. The experiment is described as follows: Antibacterial activity against methicillin-resistant Staphylococcus aureus after 20 hrs by spectrophotometry. The format is functional.

As to `CC1=CCC[C@]2(C)CC[C@@H]3[C@@H]([C@@H](C(C)C)CC[C@]3(C)O)[C@H]12`, the “growth inhibition (GI)” value in the experiment on A549, with MCF7, in the experiment on HT-29, in the experiment on MIA PaCa-2 and in the experiment with HepG2 was “inactive” throughout.
Take `CC1=CCC[C@]2(C)CC[C@@]3(O)[C@@H]([C@@H](C(C)C)CC[C@@H]3C)[C@H]12`: the “growth inhibition (GI)” value in the experiment with A549, with MCF7, in the experiment on HT-29, in the experiment with MIA PaCa-2 and in the experiment on HepG2 was “inactive” each time.
One may read the MIC50 as an inhibitory concentration at the 50% level, which refers to growth in some studies and to a panel of isolates in others. A higher MIC50 goes with lower susceptibility. The compound `C=C1CCC[C@]2(C)CC[C@@]3(O)[C@@H]([C@@H](C(C)C)CC[C@@H]3C)[C@H]12` had an MIC50 in the experiment on Staphylococcus aureus of 48 µg/mL (≈ 165 µM). Moreover, the “growth inhibition (GI)” value in the experiment on A549, in the experiment with MCF7, in the experiment on HT-29, with MIA PaCa-2 and in the experiment with HepG2 was “inactive” in each case.
